Assay results published in ChEMBL document CHEMBL1201862, “PubChem BioAssay data set” (2004).
The source made the active and inactive calls.

Experiments:
[1] = target: Paired box protein Pax-8 (Homo sapiens, UniProt Q06710); experiment: inhibitors of PAX8-driven TPO luciferase reporter, dose response, RMG-I cells, cherry-pick (AID 687027); type: functional, cell-based;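 note: luciferase reporter driven by Pax8 target thyroperoxidase promoter measured by SteadyGlo luminescence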
[2] = target: T1, Protein skinhead-1 (Caenorhabditis elegans, UniProt P34707); type: functional
T1 sequence (P34707 whole entry): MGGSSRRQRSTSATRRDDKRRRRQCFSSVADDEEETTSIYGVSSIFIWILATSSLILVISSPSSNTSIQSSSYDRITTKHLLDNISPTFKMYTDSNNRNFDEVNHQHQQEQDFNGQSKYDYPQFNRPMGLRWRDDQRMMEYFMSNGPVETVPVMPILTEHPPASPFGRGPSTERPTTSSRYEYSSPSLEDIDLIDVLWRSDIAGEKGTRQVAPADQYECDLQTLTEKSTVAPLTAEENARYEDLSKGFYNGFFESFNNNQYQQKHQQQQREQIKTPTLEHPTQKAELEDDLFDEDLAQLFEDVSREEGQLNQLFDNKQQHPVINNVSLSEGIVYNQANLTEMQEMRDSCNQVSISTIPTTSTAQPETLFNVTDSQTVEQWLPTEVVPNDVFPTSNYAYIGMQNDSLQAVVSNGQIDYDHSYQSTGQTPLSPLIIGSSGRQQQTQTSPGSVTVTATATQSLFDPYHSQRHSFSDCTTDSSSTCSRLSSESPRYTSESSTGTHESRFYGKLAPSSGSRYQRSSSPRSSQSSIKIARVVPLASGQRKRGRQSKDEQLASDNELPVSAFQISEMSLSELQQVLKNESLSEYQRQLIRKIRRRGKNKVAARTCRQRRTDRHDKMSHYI

[3] = inhibitors of HIV Env-driven cell fusion, dose response, cherry-pick (AID 652057); type: functional, cell-based
[4] = ZM109 Env clade C HIV-1 fusion inhibitors, dose response, HeLa effector, CEM target cells, luciferase, cherry-pick (AID 652058); type: functional, cell-based
[5] = off-target signal loss in HeLa-CEM21 co-culture – HeLa F-luc CTL cells, cherry-picked, counter-screen for HIV-1 Env fusion inhibitor project, dose response (AID 652040); type: functional, cell-based;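 note: potency for signal decrease marking cytotoxic or nonspecific inhibition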
[6] = inhibitors of clade B AD8 Env fusion, dose response, cell-based, cherry-pick (AID 652062); type: functional;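 note: luciferase signal from cell-cell fusion driven by HIV-1 clade B AD8 Env; potency is for inhibitors of fusion seen as a drop in luminescence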
[7] = target: T2, Carboxy-terminal domain RNA polymerase II polypeptide A small phosphatase 1 (Homo sapiens, UniProt Q9GZU7); experiment: inhibitors of CTDSP1, concentration-response testing, biochemical assay, absorbance-based, actives from ultra-high-throughput screening (AID 540297); type: functional
T2 sequence (Q9GZU7 whole entry): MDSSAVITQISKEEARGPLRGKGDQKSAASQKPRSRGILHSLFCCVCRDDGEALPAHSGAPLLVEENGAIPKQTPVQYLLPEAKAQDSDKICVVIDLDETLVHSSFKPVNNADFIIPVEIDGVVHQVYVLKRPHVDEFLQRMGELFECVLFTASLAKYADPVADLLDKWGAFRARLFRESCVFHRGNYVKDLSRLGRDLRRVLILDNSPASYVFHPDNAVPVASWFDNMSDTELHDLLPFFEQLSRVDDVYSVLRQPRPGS

[8] = target: Nonstructural protein 1 (Influenza A virus, UniProt Q194T2); type: functional, Influenza A virus (A/California/07/2009(H1N1))
[9] = cells; type: functional, cell-based
[10] = cells; type: functional, cell-based; remark: listed apart in the source
[11] = target: T3, Streptokinase A (Streptococcus pyogenes serotype M1, UniProt P10520); experiment: S. pyogenes streptokinase expression inhibitors, potency, dose response, plasminogen activation absorbance, OD405 (AID 1914); type: functional, Streptococcus pyogenes M1 GAS;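 note: secreted streptokinase activity via plasminogen activation per viability signal from cell pellet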
T3 sequence (P10520 whole entry): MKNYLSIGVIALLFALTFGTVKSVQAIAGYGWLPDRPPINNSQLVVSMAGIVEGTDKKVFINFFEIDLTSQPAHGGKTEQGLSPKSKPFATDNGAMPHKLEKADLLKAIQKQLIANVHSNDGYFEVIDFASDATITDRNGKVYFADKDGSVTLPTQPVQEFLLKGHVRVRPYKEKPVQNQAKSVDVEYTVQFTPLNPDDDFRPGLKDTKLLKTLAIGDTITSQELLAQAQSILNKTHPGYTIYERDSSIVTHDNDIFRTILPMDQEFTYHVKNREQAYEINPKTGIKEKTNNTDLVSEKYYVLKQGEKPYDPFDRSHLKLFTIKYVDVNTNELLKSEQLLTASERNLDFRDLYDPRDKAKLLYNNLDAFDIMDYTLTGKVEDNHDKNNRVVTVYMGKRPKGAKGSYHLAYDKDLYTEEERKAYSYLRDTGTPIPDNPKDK

[12] = tested on: Streptococcus; experiment: Group A Streptococcus viability loss, dose response, counter-screen for streptokinase expression inhibitor project, luminescence, BacTiterGlo (AID 1915); type: functional, organism-based;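 note: potency for reduction of bacterial viability or growth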
[13] = inhibitors of firefly luciferase expression or activity, dose response, H4 neuroglioma cells, luminescence (AID 1990); type: functional, cell-based
[14] = Luminescence Cell-Based Dose Response HTS to Identify Inhibitors of 5'UTR Stem-Loop Driven Prion Protein mRNA Translation in H4 Neuroglioblastoma Cells. [Related pubchem assays: 1827 (Project Summary), 1813 (Primary HTS)]; type: functional
[15] = inhibitors of SNCA 5'UTR-driven reporter translation, confirmation, H4 neuroglioma cells, luminescence (AID 1988); type: functional, cell-based
[16] = target: T4, RNA-binding protein pos-1 (Caenorhabditis elegans, UniProt G5EF15); experiment: inhibitors of POS-1/mex-3 RNA binding, dose response, biochemical, fluorescence polarization (AID 1964);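 note: purified POS-1 fused to maltose binding protein made in E. coli; potency of compounds blocking POS-1 binding to fluorescent RNA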
T4 sequence (G5EF15 whole entry): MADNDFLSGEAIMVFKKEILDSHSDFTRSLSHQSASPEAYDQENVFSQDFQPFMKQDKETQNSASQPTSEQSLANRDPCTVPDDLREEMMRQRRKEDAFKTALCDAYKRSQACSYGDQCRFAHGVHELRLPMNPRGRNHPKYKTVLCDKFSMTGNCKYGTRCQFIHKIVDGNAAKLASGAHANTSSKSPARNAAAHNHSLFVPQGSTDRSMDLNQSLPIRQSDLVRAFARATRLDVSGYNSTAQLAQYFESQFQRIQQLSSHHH

[17] = target: T5, Zinc finger protein mex-5 (Caenorhabditis elegans, UniProt Q9XUB2); experiment: MEX-5/TCR-2 RNA interaction inhibitors, dose response, biochemical, C. elegans, fluorescence polarization (AID 1960)
T5 sequence (Q9XUB2 whole entry): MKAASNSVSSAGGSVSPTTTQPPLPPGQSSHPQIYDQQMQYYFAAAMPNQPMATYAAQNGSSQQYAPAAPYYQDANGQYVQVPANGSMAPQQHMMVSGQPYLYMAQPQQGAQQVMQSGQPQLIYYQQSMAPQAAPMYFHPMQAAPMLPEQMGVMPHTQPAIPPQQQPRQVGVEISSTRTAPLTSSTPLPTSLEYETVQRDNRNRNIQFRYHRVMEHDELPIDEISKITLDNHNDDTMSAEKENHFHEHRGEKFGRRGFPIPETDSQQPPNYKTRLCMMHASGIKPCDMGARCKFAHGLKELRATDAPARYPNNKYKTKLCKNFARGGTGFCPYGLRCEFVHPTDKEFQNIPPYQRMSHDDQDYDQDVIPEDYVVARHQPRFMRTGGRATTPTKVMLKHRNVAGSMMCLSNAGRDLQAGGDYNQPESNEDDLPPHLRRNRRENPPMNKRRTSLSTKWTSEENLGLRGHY

[18] = target: Large T antigen (Simian virus 40, UniProt P03070); type: functional, Betapolyomavirus macacae;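 note: Confirmatory-stage PubChem screen for compounds that inhibit SV40 T antigen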
[19] = HEp-2 cell cytotoxicity, dose response, cytotoxicity control for RSV inhibitor project, HTS (AID 2410); type: functional; conditions: human respiratory syncytial virus
[20] = target: T6, Rac GTPase-activating protein 1 (Homo sapiens, UniProt Q9H0H5); experiment: MgcRacGAP GTPase-activating activity inhibitors, confirmation, biochemical, ADP Hunter fluorescence, primary and confirmatory (AID 624330); type: functional
T6 sequence (Q9H0H5 whole entry): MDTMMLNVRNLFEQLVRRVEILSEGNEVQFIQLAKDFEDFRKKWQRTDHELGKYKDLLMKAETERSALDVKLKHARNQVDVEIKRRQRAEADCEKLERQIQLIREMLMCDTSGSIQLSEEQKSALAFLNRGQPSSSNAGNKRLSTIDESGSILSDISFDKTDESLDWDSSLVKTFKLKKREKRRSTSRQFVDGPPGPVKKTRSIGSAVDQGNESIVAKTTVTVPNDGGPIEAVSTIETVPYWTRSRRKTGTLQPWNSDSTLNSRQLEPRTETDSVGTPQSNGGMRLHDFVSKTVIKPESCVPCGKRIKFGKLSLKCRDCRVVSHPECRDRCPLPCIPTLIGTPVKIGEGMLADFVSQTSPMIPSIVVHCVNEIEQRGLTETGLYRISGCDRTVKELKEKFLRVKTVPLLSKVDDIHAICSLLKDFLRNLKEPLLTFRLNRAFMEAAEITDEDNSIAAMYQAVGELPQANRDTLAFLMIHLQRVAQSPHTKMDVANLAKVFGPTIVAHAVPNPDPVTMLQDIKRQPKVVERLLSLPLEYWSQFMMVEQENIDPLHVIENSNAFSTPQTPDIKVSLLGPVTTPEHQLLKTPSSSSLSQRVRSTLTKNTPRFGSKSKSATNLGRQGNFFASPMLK

Chain of Nonstructural protein 1 (Q194T2 whole entry): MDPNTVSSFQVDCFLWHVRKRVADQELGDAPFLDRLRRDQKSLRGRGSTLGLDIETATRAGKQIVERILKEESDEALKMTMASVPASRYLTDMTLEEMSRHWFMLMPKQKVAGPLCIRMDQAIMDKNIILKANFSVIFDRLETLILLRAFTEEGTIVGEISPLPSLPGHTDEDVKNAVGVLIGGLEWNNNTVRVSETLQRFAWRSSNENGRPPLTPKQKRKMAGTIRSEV
Chain of Paired box protein Pax-8 (Q06710 whole entry): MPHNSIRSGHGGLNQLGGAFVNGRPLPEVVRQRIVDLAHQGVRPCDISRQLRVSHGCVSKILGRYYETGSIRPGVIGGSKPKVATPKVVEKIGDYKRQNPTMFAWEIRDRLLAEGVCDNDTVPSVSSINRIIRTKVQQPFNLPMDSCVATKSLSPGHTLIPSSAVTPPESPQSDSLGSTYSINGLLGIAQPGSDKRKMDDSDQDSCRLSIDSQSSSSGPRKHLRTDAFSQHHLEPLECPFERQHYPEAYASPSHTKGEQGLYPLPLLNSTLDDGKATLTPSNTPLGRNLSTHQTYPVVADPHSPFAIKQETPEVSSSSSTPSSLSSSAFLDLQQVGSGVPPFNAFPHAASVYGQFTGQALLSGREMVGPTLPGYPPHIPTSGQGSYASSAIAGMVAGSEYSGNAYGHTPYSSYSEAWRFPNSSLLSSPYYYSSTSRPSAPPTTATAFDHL
Chain of Large T antigen (P03070 whole entry): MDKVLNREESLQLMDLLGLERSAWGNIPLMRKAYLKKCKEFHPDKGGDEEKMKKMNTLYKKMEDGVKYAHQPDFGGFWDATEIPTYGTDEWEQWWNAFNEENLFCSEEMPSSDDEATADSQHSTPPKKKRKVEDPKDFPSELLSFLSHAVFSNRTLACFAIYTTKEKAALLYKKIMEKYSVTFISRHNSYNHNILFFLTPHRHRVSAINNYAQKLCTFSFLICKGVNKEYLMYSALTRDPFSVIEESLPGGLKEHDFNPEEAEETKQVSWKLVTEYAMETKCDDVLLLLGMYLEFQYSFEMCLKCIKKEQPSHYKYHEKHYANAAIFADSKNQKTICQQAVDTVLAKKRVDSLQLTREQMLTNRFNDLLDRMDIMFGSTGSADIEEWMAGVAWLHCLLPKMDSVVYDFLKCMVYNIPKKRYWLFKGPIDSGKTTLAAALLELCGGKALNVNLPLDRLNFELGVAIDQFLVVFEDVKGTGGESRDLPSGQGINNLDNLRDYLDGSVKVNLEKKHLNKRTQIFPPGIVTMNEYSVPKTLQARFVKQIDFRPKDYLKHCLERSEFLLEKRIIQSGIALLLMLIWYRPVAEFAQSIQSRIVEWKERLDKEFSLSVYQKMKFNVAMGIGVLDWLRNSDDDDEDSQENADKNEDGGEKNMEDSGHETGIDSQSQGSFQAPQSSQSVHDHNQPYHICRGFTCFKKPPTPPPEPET

SMILES: C[C@@H]1CCCCO[C@H](CN(C)C(=O)Nc2ccc(C(F)(F)F)cc2)[C@H](C)CN([C@@H](C)CO)C(=O)c2cc(NS(=O)(=O)c3ccc(Cl)cc3)ccc2O1
- AC50 [1]: 16.4 µM (active)

SMILES: CSc1ccc(-c2nnn(Cc3ccc(Br)cc3)n2)cc1
- IC50 [2]: > 100 µM (inactive)

SMILES: Nc1ncc(-c2ccc(-c3ccccc3)cc2F)cc1-c1ccccc1F
- IC50 [2]: > 100 µM (inactive)

SMILES: CCCCNC(=O)COC(=O)c1cc(S(=O)(=O)N2CCCCCC2)ccc1OC
- IC50 [2]: > 100 µM (inactive)

SMILES: C=C(C)c1cccc(C(C)(C)NC(=O)Nc2ccc(Cl)cn2)c1
- AC50 [3]: 50.7 µM (active)
- AC50 [4]: 0.604 µM (active)
- AC50 [5]: 16.5 µM (active)
- AC50 [6]: 12.8 µM (active)

SMILES: COc1cc2cnc(-c3ccccc3)c(-c3cc(OC)c(OC)c(OC)c3)c2cc1OC
- IC50 [7]: 67.2 µM (active)

SMILES: O=C(Nc1cccc([N+](=O)[O-])c1)c1cnccn1
- IC50 [7]: 5.88 µM (active)

SMILES: COc1ccc(S(=O)(=O)NCCSC(C)(C)C)c(Cl)c1Cl
- IC50 [7]: 8.61 µM (active)

SMILES: O=C1c2ccccc2C(=O)c2c1cccc2N1CCN(Cc2ccccc2)CC1
- IC50 [8]: 7.08 µM (active)

SMILES: COc1ccc(CC(=O)Nc2nnc(SCc3ccccc3)s2)cc1S(=O)(=O)N1CCOCC1
- IC50 [2]: > 100 µM (inactive)

SMILES: C=CCOCCN1C(=O)C2C3C=CC(C2C1=O)C1C2C(=O)N(CCOCC=C)C(=O)C2C31 (configuration not stated)
- IC50 [7]: 19.9 µM (active)

SMILES: N#CC1(NC(=O)COc2ccccc2[N+](=O)[O-])CCCCC1
- IC50 [7]: 18.7 µM (active)

SMILES: Cc1ccc(OCCCCNC(C)c2ccccc2)c(C)c1 (configuration not stated)
- AC50 [3]: 3.69 µM (active)
- AC50 [4]: 5.29 µM (active)
- AC50 [5]: 2.94 µM (active)
- AC50 [6]: 5.36 µM (active)

SMILES: O=C(COC(=O)c1cccc(S(=O)(=O)N2CCOCC2)c1)Nc1ncc(C(F)(F)F)cc1Cl
- EC50 [9]: > 350 µM (not active)
- EC50 [10]: > 350 µM (not active)
- IC50 [2]: > 100 µM (inactive)

SMILES: CN(C)c1nc(SCc2ccccc2Cl)nc2c1CCCC2
- EC50 [11]: 14 µM (active)
- EC50 [12]: > 150 µM (not active)
- IC50 [2]: > 100 µM (inactive)

SMILES: Oc1cccc2c(-c3nn[nH]n3)ccnc12
- IC50 [8]: 7.24 µM (active)

SMILES: O=C(NCc1ccco1)c1ccc(Cn2c(=O)c3ccccc3n(Cc3cccc(Cl)c3)c2=O)cc1
- EC50 [13]: 11.8 µM (active)
- EC50 [14]: > 120 µM (not active)
- EC50 [15]: 16.5 µM (active)
- AC50 [3]: 1.83 µM (active)
- AC50 [4]: 2.76 µM (active)
- AC50 [5]: 1.78 µM (active)
- AC50 [6]: 1.34 µM (active)

SMILES: Cc1ccc(/C=C2\C(=O)NC(=S)N(c3cccc(F)c3)C2=O)o1
- EC50 [16]: 63.5 µM (active)
- EC50 [17]: 44.6 µM (active)
- IC50 [18]: 36.7 µM (active)

SMILES: N#Cc1ccsc1NC(=O)COC(=O)CCS(=O)(=O)c1ccccc1
- IC50 [7]: 8.32 µM (active)

SMILES: CC/N=c1\scc(C)n1/N=C/c1cc(Br)c(O)c(OC)c1
- CC50 [19]: 15.6 µM (active)
- IC50 [18]: 8.55 µM (active)
- IC50 [20]: 25.2 µM (active)

SMILES: Cc1cc2ccccn2c1C(=O)c1cc([N+](=O)[O-])cc([N+](=O)[O-])c1
- IC50 [8]: 40.7 µM (active)

SMILES: CCOC(=O)C1=CN(Cc2cccc(-c3cccnc3)c2)S(=O)(=O)N(C)C1C (configuration not stated)
- AC50 [1]: 59.2 µM (active)

SMILES: COc1cccc(/C=N/NC(=O)C(=O)NCc2cccnc2)c1O
- IC50 [8]: 8.2 µM (active)

SMILES: Cc1ccc(NC(=O)N2CCC(NC(=O)c3cccc(C)c3)CC2)cc1
- EC50 [9]: > 350 µM (not active)
- EC50 [10]: > 350 µM (not active)
- IC50 [7]: 10.5 µM (active)

SMILES: OC[C@H]1O[C@@H](n2cnc3c(NCc4ccco4)ncnc32)[C@H](O)[C@@H]1O [KINETIN RIBOSIDE]
- AC50 [1]: 2.25 µM (active)
